{"source": "patent US11123337B2", "about": "“4-methylsulfonyl-substituted piperidine urea compounds” (MYOKARDIA, INC., priority 2015, dated 2021)", "data": [{"biological_target": "bovine cardiac myosin (Bos taurus, UniProt Q9BE39)", "sequence (Q9BE39 whole entry)": "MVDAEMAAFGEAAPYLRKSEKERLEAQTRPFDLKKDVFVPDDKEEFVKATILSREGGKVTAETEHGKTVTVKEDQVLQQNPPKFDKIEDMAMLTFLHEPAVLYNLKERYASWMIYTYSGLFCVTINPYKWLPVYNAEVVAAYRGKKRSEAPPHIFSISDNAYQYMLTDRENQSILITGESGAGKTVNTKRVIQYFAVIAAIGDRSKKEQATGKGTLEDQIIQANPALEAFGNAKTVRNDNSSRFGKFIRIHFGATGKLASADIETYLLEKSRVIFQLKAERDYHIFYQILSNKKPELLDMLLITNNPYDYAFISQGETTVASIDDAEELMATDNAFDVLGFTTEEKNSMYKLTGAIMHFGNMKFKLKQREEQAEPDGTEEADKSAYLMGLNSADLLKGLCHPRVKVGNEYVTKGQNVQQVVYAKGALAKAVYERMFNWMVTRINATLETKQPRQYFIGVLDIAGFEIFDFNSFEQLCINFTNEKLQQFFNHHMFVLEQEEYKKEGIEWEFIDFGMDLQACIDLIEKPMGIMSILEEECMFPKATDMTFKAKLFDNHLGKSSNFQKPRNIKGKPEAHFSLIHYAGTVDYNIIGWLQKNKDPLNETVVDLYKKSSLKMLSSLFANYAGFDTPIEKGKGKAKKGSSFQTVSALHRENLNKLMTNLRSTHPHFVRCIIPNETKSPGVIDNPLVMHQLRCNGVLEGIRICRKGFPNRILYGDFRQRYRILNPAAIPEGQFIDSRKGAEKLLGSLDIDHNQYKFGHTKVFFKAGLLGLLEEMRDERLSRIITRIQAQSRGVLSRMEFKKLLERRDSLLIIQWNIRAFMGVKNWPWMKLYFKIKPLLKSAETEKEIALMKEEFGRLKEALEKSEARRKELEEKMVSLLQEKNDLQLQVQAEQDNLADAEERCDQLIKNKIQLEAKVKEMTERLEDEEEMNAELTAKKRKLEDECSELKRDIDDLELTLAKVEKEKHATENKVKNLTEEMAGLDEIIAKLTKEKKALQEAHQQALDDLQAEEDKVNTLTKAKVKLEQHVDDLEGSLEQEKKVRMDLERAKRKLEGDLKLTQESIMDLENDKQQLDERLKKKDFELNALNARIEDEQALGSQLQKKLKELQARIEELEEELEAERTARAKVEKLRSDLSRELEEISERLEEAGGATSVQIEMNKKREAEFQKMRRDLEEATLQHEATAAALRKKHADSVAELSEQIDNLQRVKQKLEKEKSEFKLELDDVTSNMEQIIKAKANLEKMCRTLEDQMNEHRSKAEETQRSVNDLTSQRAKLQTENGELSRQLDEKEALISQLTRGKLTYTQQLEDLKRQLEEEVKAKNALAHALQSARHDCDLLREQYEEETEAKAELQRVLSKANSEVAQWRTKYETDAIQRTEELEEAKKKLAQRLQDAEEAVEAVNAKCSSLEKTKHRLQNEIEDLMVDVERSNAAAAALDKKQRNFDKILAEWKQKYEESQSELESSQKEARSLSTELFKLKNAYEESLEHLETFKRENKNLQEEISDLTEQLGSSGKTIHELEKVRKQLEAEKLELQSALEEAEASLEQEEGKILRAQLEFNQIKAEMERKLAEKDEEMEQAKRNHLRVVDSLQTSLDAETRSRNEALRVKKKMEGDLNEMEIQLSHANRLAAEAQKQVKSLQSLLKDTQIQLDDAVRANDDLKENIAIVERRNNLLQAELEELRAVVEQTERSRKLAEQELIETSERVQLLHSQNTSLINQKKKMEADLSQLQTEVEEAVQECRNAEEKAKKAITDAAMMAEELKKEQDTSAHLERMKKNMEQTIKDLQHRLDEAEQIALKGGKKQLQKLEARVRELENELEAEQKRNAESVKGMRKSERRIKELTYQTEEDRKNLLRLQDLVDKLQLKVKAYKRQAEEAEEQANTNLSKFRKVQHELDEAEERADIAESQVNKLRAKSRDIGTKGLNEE", "sequence (P85100 whole entry partner)": "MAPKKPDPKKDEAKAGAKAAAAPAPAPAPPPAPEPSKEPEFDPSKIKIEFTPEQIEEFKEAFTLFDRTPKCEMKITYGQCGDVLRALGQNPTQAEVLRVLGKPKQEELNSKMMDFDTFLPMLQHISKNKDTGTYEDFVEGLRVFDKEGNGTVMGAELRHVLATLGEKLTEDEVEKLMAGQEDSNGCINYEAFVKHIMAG", "sequence (Q3SZE5 whole entry partner)": "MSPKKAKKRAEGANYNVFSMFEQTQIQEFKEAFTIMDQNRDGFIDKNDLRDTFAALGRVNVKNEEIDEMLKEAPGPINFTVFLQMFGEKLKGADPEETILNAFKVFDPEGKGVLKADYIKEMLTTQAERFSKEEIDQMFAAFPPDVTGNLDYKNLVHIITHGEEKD", "experiment": "Myosin activation assay (PK/LDH-coupled ATPase, bovine cardiac myofibrils)", "type": "biochemical", "settings": "AC20 = concentration at which total response is increased by twenty percent", "summary_of_the_method": "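Skinned bovine cardiac myofibrils (1 mg/mL) in PIPES/MgCl2 buffer pH 6.8 at free Ca2+ giving ~50% (pCa ~6) or <5% (pCa 10) activation, with 50 μM ATP and 3.3% DMSO. ATPase rate from NADH absorbance at 340 nm (PK/LDH coupling) over 15 min at ambient temperature. AC20/AC50 from a four-parameter fit of DMSO-normalised rates.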", "values": [{"smiles": "Cc1cc(NC(=O)N2CCC([C@](C)(F)S(=O)(=O)c3cn(C)nc3C(F)F)CC2)ccn1", "note": "[Compound 233, (R)-4-(1-((3-(difluoromethyl)-1-methyl-1H-pyrazol-4-yl)sulfonyl)-1-fluoroethyl)-N-(2-methylpyridin-4-yl)piperidine-1-carboxamide]", "Myosin Activation (AC20)": "+++ (+++ represents myosin activation value AC20 < 2 μM)"}, {"smiles": "CC(C)(C1CCN(C(=O)Nc2cn[nH]c2)CC1)S(=O)(=O)c1cccc(F)c1", "note": "[Compound 146, 4-(2-((3-fluorophenyl)sulfonyl)propan-2-yl)-N-(1H-pyrazol-4-yl)piperidine-1-carboxamide]", "Myosin Activation (AC20)": "++ (++ represents myosin activation value AC20 from 2 μM-5 μM)"}, {"smiles": "CCn1nccc1S(=O)(=O)C(C)(F)C1CCN(C(=O)Nc2ccnnc2)CC1", "note": "(stereo not shown) [Compound 269, 4-(1-((1-ethyl-1H-pyrazol-5-yl)sulfonyl)-1-fluoroethyl)-N-(pyridazin-4-yl)piperidine-1-carboxamide]", "Myosin Activation (AC20)": "++ (++ represents myosin activation value AC20 from 2 μM-5 μM)"}, {"smiles": "Cn1nccc1S(=O)(=O)C(C)(F)C1CCN(C(=O)Nc2ccc(F)nc2)CC1", "note": "(stereo not shown) [Compound 228, 4-(1-fluoro-1-((1-methyl-1H-pyrazol-5-yl)sulfonyl)ethyl)-N-(6-fluoropyridin-3-yl)piperidine-1-carboxamide]", "Myosin Activation (AC20)": "++ (++ represents myosin activation value AC20 from 2 μM-5 μM)"}, {"smiles": "Cn1cc(S(=O)(=O)[C@@](C)(F)C2CCN(C(=O)Nc3cccnc3)CC2)c(C(F)F)n1", "note": "[Compound 288, (R)-4-(1-((3-(difluoromethyl)-1-methyl-1H-pyrazol-4-yl)sulfonyl)-1-fluoroethyl)-N-(pyridin-3-yl)piperidine-1-carboxamide]", "Myosin Activation (AC20)": "++ (++ represents myosin activation value AC20 from 2 μM-5 μM)"}, {"smiles": "CC(F)(C1CCN(C(=O)Nc2ccnc(F)c2)CC1)S(=O)(=O)c1ccc(C(F)(F)F)cc1", "note": "(stereo not shown) [Compound 243, 4-(1-fluoro-1-((4-(trifluoromethyl)phenyl)sulfonyl)ethyl)-N-(2-fluoropyridin-4-yl)piperidine-1-carboxamide]", "Myosin Activation (AC20)": "++ (++ represents myosin activation value AC20 from 2 μM-5 μM)"}, {"smiles": "CC(F)(C1CCN(C(=O)Nc2cnns2)CC1)S(=O)(=O)c1cccc(F)c1", "note": "(stereo not shown) [Compound 45, 4-(1-fluoro-1-((3-fluorophenyl)sulfonyl)ethyl)-N-(1,2,3-thiadiazol-5-yl)piperidine-1-carboxamide]", "Myosin Activation (AC20)": "+++ (+++ represents myosin activation value AC20 < 2 μM)"}, {"smiles": "C[C@](F)(C1CCN(C(=O)Nc2ccc(CO)nc2)CC1)S(=O)(=O)c1cccc(F)c1", "note": "[Compound 286, (R)-4-(1-fluoro-1-((3-fluorophenyl)sulfonyl)ethyl)-N-(6-(hydroxymethyl)pyridin-3-yl)piperidine-1-carboxamide]", "Myosin Activation (AC20)": "+ (+ represents myosin activation value AC20 > 5 μM)"}, {"smiles": "CN(C(=O)N1CCC(C(C)(C)S(=O)(=O)c2cccc(F)c2)CC1)c1ccncc1", "note": "[Compound 219, 4-(2-((3-fluorophenyl)sulfonyl)propan-2-yl)-N-methyl-N-(pyridin-4-yl)piperidine-1-carboxamide]", "Myosin Activation (AC20)": "+ (+ represents myosin activation value AC20 > 5 μM)"}, {"smiles": "Cn1nc(C(F)(F)F)cc1S(=O)(=O)C(C)(F)C1CCN(C(=O)Nc2ccnnc2)CC1", "note": "(stereo not shown) [Compound 277, 4-(1-fluoro-1-((1-methyl-3-(trifluoromethyl)-1H-pyrazol-5-yl)sulfonyl)ethyl)-N-(pyridazin-4-yl)piperidine-1-carboxamide]", "Myosin Activation (AC20)": "+++ (+++ represents myosin activation value AC20 < 2 μM)"}, {"smiles": "O=C(Nc1ccnnc1)N1CCC(C(F)(F)S(=O)(=O)c2cccc3c2COC3)CC1", "note": "[Compound 71, 4-(((1,3-dihydroisobenzofuran-4-yl)sulfonyl)difluoromethyl)-N-(pyridazin-4-yl)piperidine-1-carboxamide]", "Myosin Activation (AC20)": "++ (++ represents myosin activation value AC20 from 2 μM-5 μM)"}, {"smiles": "CC(F)(C1CCN(C(=O)Nc2ccnnc2)CC1)S(=O)(=O)c1ccc(C#N)cc1", "note": "(stereo not shown) [Compound 270, 4-(1-((4-cyanophenyl)sulfonyl)-1-fluoroethyl)-N-(pyridazin-4-yl)piperidine-1-carboxamide]", "Myosin Activation (AC20)": "+++ (+++ represents myosin activation value AC20 < 2 μM)"}, {"smiles": "C[C@](F)(C1CCN(C(=O)Nc2ccon2)CC1)S(=O)(=O)c1ccc(C(F)(F)F)nc1", "note": "[Compound 310, (R)-4-(1-fluoro-1-((6-(trifluoromethyl)pyridin-3-yl)sulfonyl)ethyl)-N-(isoxazol-3-yl)piperidine-1-carboxamide]", "Myosin Activation (AC20)": "++ (++ represents myosin activation value AC20 from 2 μM-5 μM)"}, {"smiles": "CC(C)(C1CCN(C(=O)Nc2ccncc2Cl)CC1)S(=O)(=O)c1cccc(F)c1", "note": "[Compound 176, N-(3-chloropyridin-4-yl)-4-(2-((3-fluorophenyl)sulfonyl)propan-2-yl)piperidine-1-carboxamide]", "Myosin Activation (AC20)": "+ (+ represents myosin activation value AC20 > 5 μM)"}, {"smiles": "Cc1ccc(NC(=O)N2CCC(C(C)(F)S(=O)(=O)c3cn(C)nc3C(F)(F)F)CC2)cn1", "note": "(stereo not shown) [Compound 247, 4-(1-fluoro-1-((1-methyl-3-(trifluoromethyl)-1H-pyrazol-4-yl)sulfonyl)ethyl)-N-(6-methylpyridin-3-yl)piperidine-1-carboxamide]", "Myosin Activation (AC20)": "+ (+ represents myosin activation value AC20 > 5 μM)"}, {"smiles": "O=C(Nc1ccns1)N1CCC(C2(S(=O)(=O)c3cc(F)cc(F)c3)CC2)CC1", "note": "[Compound 203, 4-(1-((3,5-difluorophenyl)sulfonyl)cyclopropyl)-N-(isothiazol-5-yl)piperidine-1-carboxamide]", "Myosin Activation (AC20)": "+++ (+++ represents myosin activation value AC20 < 2 μM)"}, {"smiles": "Cn1cc(S(=O)(=O)C(C)(C)C2CCN(C(=O)Nc3ccnnc3)CC2)c(C(F)(F)F)n1", "note": "[Compound 120, 4-(2-((1-methyl-3-(trifluoromethyl)-1H-pyrazol-4-yl)sulfonyl)propan-2-yl)-N-(pyridazin-4-yl)piperidine-1-carboxamide]", "Myosin Activation (AC20)": "++ (++ represents myosin activation value AC20 from 2 μM-5 μM)"}, {"smiles": "Cn1nc(Cl)cc1S(=O)(=O)C(C)(C)C1CCN(C(=O)Nc2ccnnc2)CC1", "note": "[Compound 140, 4-(2-((3-chloro-1-methyl-1H-pyrazol-5-yl)sulfonyl)propan-2-yl)-N-(pyridazin-4-yl)piperidine-1-carboxamide]", "Myosin Activation (AC20)": "+++ (+++ represents myosin activation value AC20 < 2 μM)"}, {"smiles": "COc1ncccc1S(=O)(=O)C(C)(C)C1CCN(C(=O)Nc2ccnnc2)CC1", "note": "[Compound 190, 4-(2-((2-methoxypyridin-3-yl)sulfonyl)propan-2-yl)-N-(pyridazin-4-yl)piperidine-1-carboxamide]", "Myosin Activation (AC20)": "++ (++ represents myosin activation value AC20 from 2 μM-5 μM)"}, {"smiles": "C[C@](F)(C1CCN(C(=O)Nc2cnc3c(c2)CNC3=O)CC1)S(=O)(=O)c1cccc(F)c1", "note": "[Compound 301, (R)-4-(1-fluoro-1-((3-fluorophenyl)sulfonyl)ethyl)-N-(7-oxo-6,7-dihydro-5H-pyrrolo[3,4-b]pyridin-3-yl)piperidine-1-carboxamide]", "Myosin Activation (AC20)": "++ (++ represents myosin activation value AC20 from 2 μM-5 μM)"}, {"smiles": "O=C(Nc1ccncc1)N1CCC(C2(S(=O)(=O)c3cccc(F)c3)CC2)CC1", "note": "[Compound 35, 4-(1-((3-fluorophenyl)sulfonyl)cyclopropyl)-N-(pyridin-4-yl)piperidine-1-carboxamide]", "Myosin Activation (AC20)": "+++ (+++ represents myosin activation value AC20 < 2 μM)"}, {"smiles": "Cn1cc(S(=O)(=O)C2(C3CCN(C(=O)Nc4ccnnc4)CC3)CCC2)c(C(F)F)n1", "note": "[Compound 170, 4-(1-((3-(difluoromethyl)-1-methyl-1H-pyrazol-4-yl)sulfonyl)cyclobutyl)-N-(pyridazin-4-yl)piperidine-1-carboxamide]", "Myosin Activation (AC20)": "+++ (+++ represents myosin activation value AC20 < 2 μM)"}, {"smiles": "COc1ccccc1S(=O)(=O)C(C)(F)C1CCN(C(=O)Nc2ccnnc2)CC1", "note": "(stereo not shown) [Compound 273, 4-(1-fluoro-1-((2-methoxyphenyl)sulfonyl)ethyl)-N-(pyridazin-4-yl)piperidine-1-carboxamide]", "Myosin Activation (AC20)": "++ (++ represents myosin activation value AC20 from 2 μM-5 μM)"}, {"smiles": "O=C(Nc1ccnnc1)N1CCC(C(F)(F)S(=O)(=O)c2ccc3ccnn3c2)CC1", "note": "[Compound 91, 4-(difluoro(pyrazolo[1,5-a]pyridin-6-ylsulfonyl)methyl)-N-(pyridazin-4-yl)piperidine-1-carboxamide]", "Myosin Activation (AC20)": "++ (++ represents myosin activation value AC20 from 2 μM-5 μM)"}, {"smiles": "CC(C)(C1CCN(C(=O)Nc2ccc(F)nc2)CC1)S(=O)(=O)c1ccc(C(F)(F)F)nc1", "note": "[Compound 104, N-(6-fluoropyridin-3-yl)-4-(2-((6-(trifluoromethyl)pyridin-3-yl)sulfonyl)propan-2-yl)piperidine-1-carboxamide]", "Myosin Activation (AC20)": "+ (+ represents myosin activation value AC20 > 5 μM)"}, {"smiles": "Cn1nc(C(F)(F)F)cc1S(=O)(=O)C(C)(F)C1CCN(C(=O)Nc2ccnc(F)c2)CC1", "note": "(stereo not shown) [Compound 251, 4-(1-fluoro-1-((1-methyl-3-(trifluoromethyl)-1H-pyrazol-5-yl)sulfonyl)ethyl)-N-(2-fluoropyridin-4-yl)piperidine-1-carboxamide]", "Myosin Activation (AC20)": "++ (++ represents myosin activation value AC20 from 2 μM-5 μM)"}, {"smiles": "CC(C)(C1CCN(C(=O)Nc2ccnc(Cl)c2)CC1)S(=O)(=O)c1cccc(F)c1", "note": "[Compound 160, N-(2-chloropyridin-4-yl)-4-(2-((3-fluorophenyl)sulfonyl)propan-2-yl)piperidine-1-carboxamide]", "Myosin Activation (AC20)": "++ (++ represents myosin activation value AC20 from 2 μM-5 μM)"}, {"smiles": "Cn1cc(S(=O)(=O)C(C)(F)C2CCN(C(=O)Nc3ccnnc3)CC2)c(C(F)F)n1", "note": "(stereo not shown) [Compound 276, 4-(1-((3-(difluoromethyl)-1-methyl-1H-pyrazol-4-yl)sulfonyl)-1-fluoroethyl)-N-(pyridazin-4-yl)piperidine-1-carboxamide]", "Myosin Activation (AC20)": "+++ (+++ represents myosin activation value AC20 < 2 μM)"}]}]}
